Test results: paper PMC6476934, “A Flavor Lactone Mimicking AHL Quorum-Sensing Signals Exploits the Broad Affinity of the QsdR Regulator to Stimulate Transcription of the Rhodococcal qsd Operon Involved in Quorum-Quenching and Biocontrol Activities” (Frontiers in Microbiology, 2019)

Columns and labels:
[1] = biological target: T1, QsdR (Rhodococcus erythropolis, UniProt A0A0C2W9F0); assay: EMSA with biotinylated qsdR-qsdA intergenic DNA, release of DNA; type: binding; conditions: ligand/QsdR molecular ratio 0.1 to 100, 3 μg QsdR, 0.4 ng DNA, room temperature
T1 construct: gene I3517_23075; qsdR ORF (563 bp NdeI-BamHI fragment) in pET19, His-tagged, E. coli BL21DE3, Ni-NTA; about 20 kDa; dimer
T1 sequence (A0A0C2W9F0 1-186): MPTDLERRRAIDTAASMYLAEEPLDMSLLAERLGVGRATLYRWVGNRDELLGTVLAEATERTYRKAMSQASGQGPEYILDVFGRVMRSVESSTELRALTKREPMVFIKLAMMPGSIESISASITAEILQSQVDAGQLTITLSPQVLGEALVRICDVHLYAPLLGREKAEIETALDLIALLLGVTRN

[2] = biological target: T2, QsdR (His-tagged) (Rhodococcus erythropolis R138?) (UniProt A0A0C2W9F0); assay: EMSA; conditions: LightShift Chemiluminescent EMSA Kit buffer (composition, salt, pH not stated); QsdR in Qiagen elution buffer with 50% glycerol; 20 min at room temperature …
T2 sequence: T1 sequence (A0A0C2W9F0 1-186)

CCC1CCC(=O)O1 (stereo not drawn) [GCL, γ-caprolactone]
EMSA with biotinylated qsdR-qsdA intergenic DNA, release of DNA ([1]; GCL in methanol-water 20:80): The addition of increasing amounts of GCL led to a proportional increase in the amount

N[C@H]1CCOC1=O [HSL, homoserine lactone]
EMSA with biotinylated qsdR-qsdA intergenic DNA, release of DNA ([1]; HSL in 10 mM Tris pH 7, positive control): inhibition of the DNA-binding activity of QsdR was also observed in the presence of HSL

GGTAGGCATCGGGACATTCTCTCCGGTTGTCCGGTACTGCACAATTTCGGCGGTCGAACAGAGGTGGGCTTCGGGTGGCTCGAGCCTATTGACGAACCAAGCGACGTGAGACACACTAGCTCATTGTCTCATGTTAGTGATGGCGATCACAGTCAGGGGTTCGATCGATGAG (double strand) [qsdR-qsdA intergenic DNA fragment]
binding [2]: binds
